From US8119630B2 (Arrow Therapeutics Limited, priority 2002, dated 2012) come the findings set out here.

Read-outs that look alike come from different tables or passages of the source.

In data set [1] the test system is Vero cells. The experiment in a line: Simultaneous toxicity investigation (XTT), Vero cells. Also on record: unit not given here. In kind it is cell-based. To be noted: for TC50 (2d): Table 2, Examples 83 to 124, 2d; for TC50 (6d): Table 2, Examples 83 to 124, 6d. How it is done:
The inner 60 wells of 96 well tissue culture plates were seeded with Vero cells at 3×10^4 cells/well (1×10^4 cells/well for toxicity studies) in 100 or 150 μl of medium and incubated at 37° C. overnight or until nearing confluency. For primary screen, 25 μl compounds were added directly to 100 μl medium in single wells to duplicate plates. A third plate was prepared for simultaneous toxicity investigation.
For follow-up investigation, 70 μl of compound in duplicate wells were added directly to culture medium at 3.2× final concentration and ½ log serially diluted down columns of plate. A duplicate plate was prepared for simultaneous toxicity investigation.
Cells were infected with 25 μl RSV to give m.o.i.≈0.2. […] Some 0.25 μl/ml PMS were added to stock XTT solution, final conc. […]. Then 25 μl warmed XTT/PMS solution were added to each well and incubated for 5 hours at 37° C. Plates were shaken (DynaTech Vari-Shaker) vigorously for 10 mins and allowed to cool for 15 mins before sealing. Absorbance at 450 nm was measured and data analysed using Microsoft Excel software.

Data set [2] has as its system RSV. The experiment in a line: XTT assay, RSV-infected Vero cells. In kind it is cell-based, Respiratory Syncytial Virus (RSV). To be noted: Vero cells infected with RSV, m.o.i.≈0.2, 6 days at 33° C. The procedure, abridged: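 Vero cells infected with RSV at m.o.i.≈0.2 in presence of serially ½-log diluted compound, incubated 6 days at 33 °C. Viability read by XTT/PMS (5 h, 37 °C) at OD450; uninfected untreated cells = 100%, infected controls = 0% inhibition. IC50 from graph or regression; parallel uninfected plates for toxicity.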
For orientation: Formazan colour is commonly taken as a measure of viable cells.

Where [3] appears, read: human respiratory syncytial virus, Vero, 144 h, read-out: XTT IC50 (uM), Table 2, Examples 83 to 124.
Setting [4] is: Table 2, Examples 83 to 124, read-out: XTT IC50.

As a reminder, the IC50 is the concentration needed to halve the response being measured. With `COc1cccc(CCC(=O)NC2N=C(c3ccccc3)c3ccccc3NC2=O)c1` (stereo not drawn) [Example 97, 3-(3-Methoxy-phenyl)-N-(2-oxo-5-phenyl-2,3-dihydro-1H-benzo[e][1,4]diazepin-3-yl)-propionamide], in data set [1], the “TC50 (2d)” value is given as over 100 and the “TC50 (6d)” value was over 100. Also, the IC50 in data set [2] (setting [3]) turned out to be 5 µM.
In the case of `COc1cccc(C2=NC(NC(=O)c3ccccc3OC)C(=O)Nc3ccccc32)c1` (stereo not drawn) [Example 109, 2-Methoxy-N-[5-(3-methoxy-phenyl)-2-oxo-2,3-dihydro-1H-benzo[e][1,4]diazepin-3-yl]-benzamide], in data set [1], the “TC50 (2d)” value turned out to be 50 and the “TC50 (6d)” value came out at 100. In addition, the 50% inhibitory concentration (IC50) in data set [2] (setting [3]) came out at 2 µM.
For `COc1ccc(C(=O)NC2N=C(c3ccc(C(F)(F)F)cc3)c3ccccc3NC2=O)cc1` (stereo not drawn) [Example 103, 4-Methoxy-N-[2-oxo-5-(4-trifluoromethyl-phenyl)-2,3-dihydro-1H-benzo[e][1,4]diazepin-3-yl]-benzamide], in that order: over 100, 30 and 7 µM.
For `COc1cc(Cl)ccc1C(=O)NC1N=C(c2ccccc2)c2ccccc2NC1=O` (stereo not drawn) [Example 88, 4-Chloro-2-methoxy-N-(2-oxo-5-phenyl-2,3-dihydro-1H-benzo[e][1,4]diazepin-3-yl)-benzamide], in that order: 100, 40 and 0.3 µM.
Take `COc1ccc(F)cc1C(=O)NC1N=C(c2ccccc2)c2ccccc2NC1=O` (stereo not drawn) [Example 92, 5-Fluoro-2-methoxy-N-(2-oxo-5-phenyl-2,3-dihydro-1H-benzo[e][1,4]diazepin-3-yl)-benzamide]: in data set [1], the “TC50 (2d)” value was determined as 100 and the “TC50 (6d)” value turned out to be 100. The IC50 in data set [2] (setting [3]) was under 0.3 µM.
As for “N-[5-(3-Chloro-phenyl)-2-oxo-5-phenyl-2,3-dihydro-1H-benzo[e][1,4]diazepin-3-yl]-4-nitro-benzamide [Example 102]”, in data set [1], the “TC50 (2d)” value is over 100 and the “TC50 (6d)” value is given as over 100. The IC50 in data set [2] (setting [4]) worked out at 7 µM.
Regarding `Cc1cccc(C)c1NC(=O)NC1N=C(c2ccccc2)c2ccccc2NC1=O` (stereo not drawn) [Example 120, 1-(2,6-Dimethyl-phenyl)-3-(2-oxo-5-phenyl-2,3-dihydro-1H-benzo[e][1,4]diazepin-3-yl)-urea], in data set [1], the “TC50 (2d)” value is given as over 100 and the “TC50 (6d)” value is 60. For the same compound, in data set [2] (setting [3]), the concentration for half-maximal inhibition (IC50) was 6 µM.
For the compound `COc1ccc(C(=O)NC2N=C(c3cccc(C(F)(F)F)c3)c3ccccc3NC2=O)cc1` (stereo not drawn) [Example 105], in data set [1], the “TC50 (2d)” value is given as over 100 and the “TC50 (6d)” value is recorded as over 100. In data set [2] (setting [4]), the IC50 was found to be 9 µM.
For `O=C(Nc1ccc(Br)cc1C(F)(F)F)NC1N=C(c2ccccc2)c2ccccc2NC1=O` (stereo not drawn) [Example 117, 1-(4-Bromo-2-trifluoromethyl-phenyl)-3-(2-oxo-5-phenyl-2,3-dihydro-1H-benzo[e][1,4]diazepin-3-yl)-urea], in data set [1], the “TC50 (2d)” value amounted to 60 and the “TC50 (6d)” value was 100. Besides, the IC50 in data set [2] (setting [3]) worked out at 6 µM.
Take `COc1ccc(C(=O)NC2N=C(c3ccccc3F)c3cc(Cl)ccc3NC2=O)cc1` (stereo not drawn) [Example 83, N-[7-Chloro-5-(2-fluoro-phenyl)-2-oxo-2,3-dihydro-1H-benzo[e][1,4]diazepine-3-yl]-4-methoxy-benzamide]: in data set [1], the “TC50 (2d)” value is reported as over 100 and the “TC50 (6d)” value is given as 32. Besides, the IC50 in data set [2] (setting [3]) was 6 µM.
The matching figures for `Cc1cccc(CNC(=O)NC2N=C(c3ccccc3)c3ccccc3NC2=O)c1` (stereo not drawn) [Example 86, 1-(3-Methyl-benzyl)-3-(2-oxo-5-phenyl-2,3-dihydro-1H-benzo[e][1,4]diazepin-3-yl)-urea]: over 100, 100 and 3 µM.
Consider `O=C(NCc1ccccc1F)NC1N=C(c2ccccc2)c2ccccc2NC1=O` (stereo not drawn) [Example 84, 1-(2-Fluoro-benzyl)-3-(2-oxo-5-phenyl-2,3-dihydro-1H-benzo[e][1,4]diazepin-3-yl)-urea], for which, in data set [1], the “TC50 (2d)” value is listed as over 100 and the “TC50 (6d)” value is over 100. For the same compound, in data set [2] (setting [3]), the IC50 is 2 µM.
As to “N-[5-(3-Methoxy-phenyl)-2-oxo-5-phenyl-2,3-dihydro-1H-benzo[e][1,4]diazepin-3-yl]nitro-benzamide [Example 110]”, in data set [1], the “TC50 (2d)” value was over 100 and the “TC50 (6d)” value is on record as over 100. Also, in data set [2] (setting [4]), the IC50 was found to be 5 µM.
Consider `COc1ccccc1CCC(=O)NC1N=C(c2ccccc2)c2ccccc2NC1=O` (stereo not drawn) [Example 96, 3-(2-Methoxy-phenyl)-N-(2-oxo-5-phenyl-2,3-dihydro-1H-benzo[e][1,4]diazepin-3-yl)propionamide], for which, in data set [1], the “TC50 (2d)” value was over 100 and the “TC50 (6d)” value was over 100. For the same compound, the IC50 in data set [2] (setting [3]) was 5 µM.
Regarding `COc1ccc(CNC(=O)NC2N=C(c3ccccc3)c3ccccc3NC2=O)cc1` (stereo not drawn) [Example 85, 1-(4-Methoxy-benzyl)-3-(2-oxo-5-phenyl-2,3-dihydro-1H-benzo[e][1,4]diazepin-3-yl)-urea], in data set [1], the “TC50 (2d)” value is over 100 and the “TC50 (6d)” value is over 100. Further, the IC50 in data set [2] (setting [3]) turned out to be 4 µM.
As for `O=C(Nc1ccc([N+](=O)[O-])cc1)NC1N=C(c2ccccc2)c2ccccc2NC1=O` (stereo not drawn) [Example 122, 1-(4-Nitro-phenyl)-3-(2-oxo-5-phenyl-2,3-dihydro-1H-benzo[e][1,4]diazepin-3-yl)-urea], in data set [1], the “TC50 (2d)” value was found to be 60 and the “TC50 (6d)” value amounted to 20. Also, the IC50 in data set [2] (setting [3]) is 0.4 µM.
`O=C(Nc1ccc(OC(F)(F)F)cc1)NC1N=C(c2ccccc2)c2ccccc2NC1=O` (stereo not drawn) [Example 116, 1-(2-Oxo-5-phenyl-2,3-dihydro-1H-benzo[e][1,4]diazepin-3-yl)-3-(4-trifluoromethoxy-phenyl)-urea]: in data set [1], the “TC50 (2d)” value is 20 and the “TC50 (6d)” value is 20. For the same compound, the IC50 in data set [2] (setting [3]) was found to be 2 µM.
With “1-(2-Chloro-6-methyl-phenyl)-3-(2-oxo-5-phenyl-2,3-dihydro-1H-benzo[e][1,4]diazepin-3-yl)-urea [Example 121]”, in data set [1], the “TC50 (2d)” value is 60 and the “TC50 (6d)” value worked out at 60. In addition, the IC50 in data set [2] (setting [4]) came to 4 µM.
For the compound `COc1cc(C(=O)NC2N=C(c3ccccc3)c3ccccc3NC2=O)ccc1[N+](=O)[O-]` (stereo not drawn) [Example 95, 3-Methoxy-4-nitro-N-(2-oxo-5-phenyl-2,3-dihydro-1H-benzo[e][1,4]diazepin-3-yl)-benzamide], in data set [1], the “TC50 (2d)” value worked out at 100 and the “TC50 (6d)” value is given as over 100. In addition, the half-maximal inhibitory concentration (IC50) in data set [2] (setting [3]) is 1.5 µM.
On to `O=C(Nc1cccc(Cl)c1Cl)NC1N=C(c2ccccc2)c2ccccc2NC1=O` (stereo not drawn) [Example 119, 1-(2,3-Dichloro-phenyl)-3-(2-oxo-5-phenyl-2,3-dihydro-1H-benzo[e][1,4]diazepin-3-yl)-urea], for which, in data set [1], the “TC50 (2d)” value was over 100 and the “TC50 (6d)” value stood at 30. The IC50 in data set [2] (setting [3]) came out at 2 µM.
The matching figures for `Cc1cc(C)cc(NC(=O)NC2N=C(c3ccccc3)c3ccccc3NC2=O)c1` (stereo not drawn) [Example 115, 1-(3,5-Dimethyl-phenyl)-3-(2-oxo-5-phenyl-2,3-dihydro-1H-benzo[e][1,4]diazepin-3-yl)-urea]: over 100, 60 and 1.5 µM.
